Measured values as given in the NIST ThermoML archive (doi:10.1016/j.fluid.2013.06.021).

Assay: xn = mol fraction of the nth substance listed
Conditions: 101 kPa, Liquid; for speed of sound: Sing-around technique in a fixed-path interferometer; for mass density: Vibrating tube method; for viscosity: Capillary tube (Ostwald / Ubbelohde) method

CCCCOCCO [2-butoxyethan-1-ol] + CCCO
Conditions | mass density [kg/m3] | speed of sound [m/s] | viscosity [mPa·s]
293.15 K, x1 = 0.052 | 812.72 | 1233.5 | –
293.15 K, x1 = 0.1024 | 820.5 | 1241.8 | –
293.15 K, x1 = 0.1524 | 827.69 | 1249.4 | –
293.15 K, x1 = 0.1986 | 833.97 | 1255.9 | –
293.15 K, x1 = 0.2528 | 840.79 | 1263 | –
293.15 K, x1 = 0.3032 | 846.73 | 1269.1 | –
293.15 K, x1 = 0.4064 | 857.67 | 1280.4 | –
293.15 K, x1 = 0.5015 | 866.6 | 1289.5 | –
293.15 K, x1 = 0.6031 | 875.08 | 1298.1 | –
293.15 K, x1 = 0.7006 | 882.33 | 1305.4 | –
293.15 K, x1 = 0.8022 | 889.07 | 1312.2 | –
293.15 K, x1 = 0.8553 | 892.31 | 1315.4 | –
293.15 K, x1 = 0.9066 | 895.25 | 1318.3 | –
293.15 K, x1 = 0.9516 | 897.7 | 1320.8 | –
298.15 K, x1 = 0.052 | 808.78 | 1216.5 | 1.991
298.15 K, x1 = 0.1024 | 816.6 | 1224.8 | 2.014
298.15 K, x1 = 0.1524 | 823.84 | 1232.3 | 2.048
298.15 K, x1 = 0.1986 | 830.06 | 1238.9 | 2.079
298.15 K, x1 = 0.2528 | 836.87 | 1245.9 | 2.122
298.15 K, x1 = 0.3032 | 842.76 | 1252 | 2.163
298.15 K, x1 = 0.4064 | 853.64 | 1263.3 | 2.256
298.15 K, x1 = 0.5015 | 862.56 | 1272.3 | 2.351
298.15 K, x1 = 0.6031 | 871.01 | 1280.9 | 2.457
298.15 K, x1 = 0.7006 | 878.24 | 1288.3 | 2.558
298.15 K, x1 = 0.8022 | 884.94 | 1295.1 | 2.666
298.15 K, x1 = 0.8553 | 888.19 | 1298.3 | 2.725
298.15 K, x1 = 0.9066 | 891.15 | 1301.3 | 2.779
298.15 K, x1 = 0.9516 | 893.62 | 1303.7 | 2.83
303.15 K, x1 = 0.052 | 804.75 | 1199.4 | 1.751
303.15 K, x1 = 0.1024 | 812.56 | 1207.8 | 1.776
303.15 K, x1 = 0.1524 | 819.76 | 1215.4 | 1.811
303.15 K, x1 = 0.1986 | 825.96 | 1221.9 | 1.844
303.15 K, x1 = 0.2528 | 832.81 | 1229 | 1.883
303.15 K, x1 = 0.3032 | 838.66 | 1235.1 | 1.925
303.15 K, x1 = 0.4064 | 849.51 | 1246.3 | 2.027
303.15 K, x1 = 0.5015 | 858.44 | 1255.4 | 2.129
303.15 K, x1 = 0.6031 | 866.86 | 1264 | 2.233
303.15 K, x1 = 0.7006 | 874.08 | 1271.3 | 2.338
303.15 K, x1 = 0.8022 | 880.81 | 1278 | 2.443
303.15 K, x1 = 0.8553 | 884.07 | 1281.3 | 2.505
303.15 K, x1 = 0.9066 | 887.02 | 1284.2 | 2.559
303.15 K, x1 = 0.9516 | 889.53 | 1286.6 | 2.615
308.15 K, x1 = 0.052 | 800.67 | 1182.4 | 1.578
308.15 K, x1 = 0.1024 | 808.47 | 1190.8 | 1.597
308.15 K, x1 = 0.1524 | 815.69 | 1198.4 | 1.627
308.15 K, x1 = 0.1986 | 821.89 | 1205 | 1.657
308.15 K, x1 = 0.2528 | 828.69 | 1212.1 | 1.69
308.15 K, x1 = 0.3032 | 834.55 | 1218.3 | 1.726
308.15 K, x1 = 0.4064 | 845.38 | 1229.5 | 1.804
308.15 K, x1 = 0.5015 | 854.29 | 1238.6 | 1.874
308.15 K, x1 = 0.6031 | 862.71 | 1247.2 | 1.953
308.15 K, x1 = 0.7006 | 869.93 | 1254.4 | 2.026
308.15 K, x1 = 0.8022 | 876.64 | 1261.1 | 2.11
308.15 K, x1 = 0.8553 | 879.9 | 1264.3 | 2.156
308.15 K, x1 = 0.9066 | 882.86 | 1267.2 | 2.188
308.15 K, x1 = 0.9516 | 885.32 | 1269.7 | 2.218
313.15 K, x1 = 0.052 | 796.66 | 1165.4 | –
313.15 K, x1 = 0.1024 | 804.45 | 1173.7 | –
313.15 K, x1 = 0.1524 | 811.62 | 1181.4 | –
313.15 K, x1 = 0.1986 | 817.8 | 1188 | –
313.15 K, x1 = 0.2528 | 824.54 | 1195.2 | –
313.15 K, x1 = 0.3032 | 830.4 | 1201.5 | –
313.15 K, x1 = 0.4064 | 841.23 | 1212.9 | –
313.15 K, x1 = 0.5015 | 850.1 | 1222 | –
313.15 K, x1 = 0.6031 | 858.52 | 1230.6 | –
313.15 K, x1 = 0.7006 | 865.71 | 1237.8 | –
313.15 K, x1 = 0.8022 | 872.48 | 1244.4 | –
313.15 K, x1 = 0.8553 | 875.69 | 1247.6 | –
313.15 K, x1 = 0.9066 | 878.69 | 1250.5 | –
313.15 K, x1 = 0.9516 | 881.14 | 1252.9 | –

CCCCOCCO [2-butoxyethan-1-ol] + CCC(C)O
Conditions | mass density [kg/m3] | speed of sound [m/s] | viscosity [mPa·s]
293.15 K, x1 = 0.0517 | 813.24 | 1236.5 | –
293.15 K, x1 = 0.1011 | 819.25 | 1242 | –
293.15 K, x1 = 0.152 | 825.25 | 1247.7 | –
293.15 K, x1 = 0.2027 | 831.03 | 1253.1 | –
293.15 K, x1 = 0.2541 | 836.67 | 1258.4 | –
293.15 K, x1 = 0.3092 | 842.49 | 1264 | –
293.15 K, x1 = 0.4012 | 851.78 | 1272.9 | –
293.15 K, x1 = 0.5011 | 861.21 | 1282.2 | –
293.15 K, x1 = 0.6065 | 870.53 | 1291.4 | –
293.15 K, x1 = 0.7054 | 878.73 | 1299.8 | –
293.15 K, x1 = 0.806 | 886.59 | 1307.9 | –
293.15 K, x1 = 0.8558 | 890.31 | 1311.8 | –
293.15 K, x1 = 0.8999 | 893.54 | 1315.3 | –
293.15 K, x1 = 0.9516 | 897.19 | 1319.3 | –
298.15 K, x1 = 0.0517 | 809.099 | 1218.9 | 2.932
298.15 K, x1 = 0.1011 | 815.491 | 1224.3 | 2.809
298.15 K, x1 = 0.152 | 821.091 | 1229.9 | 2.713
298.15 K, x1 = 0.2027 | 826.863 | 1235.3 | 2.66
298.15 K, x1 = 0.2541 | 832.498 | 1240.7 | 2.607
298.15 K, x1 = 0.3092 | 838.314 | 1246.4 | 2.586
298.15 K, x1 = 0.4012 | 847.585 | 1255.4 | 2.563
298.15 K, x1 = 0.5011 | 857.012 | 1264.8 | 2.583
298.15 K, x1 = 0.6065 | 866.34 | 1274.2 | –
298.15 K, x1 = 0.6066 | – | – | 2.598
298.15 K, x1 = 0.7054 | 874.537 | 1282.5 | 2.653
298.15 K, x1 = 0.806 | 882.398 | 1290.7 | 2.711
298.15 K, x1 = 0.8558 | 886.109 | 1294.6 | 2.747
298.15 K, x1 = 0.8999 | 889.334 | 1298.1 | 2.796
298.15 K, x1 = 0.9516 | 892.99 | 1302.2 | 2.824
303.15 K, x1 = 0.0517 | 804.88 | 1202 | 2.441
303.15 K, x1 = 0.1011 | 810.88 | 1207 | 2.357
303.15 K, x1 = 0.152 | 816.86 | 1212.3 | 2.319
303.15 K, x1 = 0.2027 | 822.62 | 1217.7 | 2.283
303.15 K, x1 = 0.2541 | 828.26 | 1223 | 2.249
303.15 K, x1 = 0.3092 | 834.08 | 1228.6 | 2.22
303.15 K, x1 = 0.4012 | 843.34 | 1237.7 | 2.224
303.15 K, x1 = 0.5011 | 852.78 | 1247.4 | 2.283
303.15 K, x1 = 0.6065 | 862.11 | 1257.1 | –
303.15 K, x1 = 0.6066 | – | – | 2.342
303.15 K, x1 = 0.7054 | 870.3 | 1265.5 | 2.419
303.15 K, x1 = 0.806 | 878.16 | 1273.8 | 2.488
303.15 K, x1 = 0.8558 | 881.88 | 1277.7 | 2.53
303.15 K, x1 = 0.8999 | 885.1 | 1281.2 | 2.562
303.15 K, x1 = 0.9516 | 888.76 | 1285.1 | 2.606
308.15 K, x1 = 0.0517 | 800.58 | 1183 | 2.081
308.15 K, x1 = 0.1011 | 806.58 | 1188.7 | 2.031
308.15 K, x1 = 0.152 | 812.55 | 1194.5 | 1.994
308.15 K, x1 = 0.2027 | 818.33 | 1200 | 1.97
308.15 K, x1 = 0.2541 | 823.96 | 1205.6 | 1.944
308.15 K, x1 = 0.3092 | 829.79 | 1211.4 | 1.935
308.15 K, x1 = 0.4012 | 839.07 | 1220.6 | 1.935
308.15 K, x1 = 0.5011 | 848.49 | 1230.3 | 1.964
308.15 K, x1 = 0.6065 | 857.81 | 1240 | –
308.15 K, x1 = 0.6066 | – | – | 1.998
308.15 K, x1 = 0.7054 | 866.02 | 1248.6 | 2.064
308.15 K, x1 = 0.806 | 873.9 | 1256.7 | 2.112
308.15 K, x1 = 0.8558 | 877.63 | 1260.8 | 2.144
308.15 K, x1 = 0.8999 | 880.86 | 1264.2 | 2.172
308.15 K, x1 = 0.9516 | 884.53 | 1268.2 | 2.196
313.15 K, x1 = 0.0517 | 796.19 | 1164.9 | –
313.15 K, x1 = 0.1011 | 802.19 | 1170.6 | –
313.15 K, x1 = 0.152 | 808.15 | 1176.6 | –
313.15 K, x1 = 0.2027 | 813.93 | 1182.3 | –
313.15 K, x1 = 0.2541 | 819.59 | 1188 | –
313.15 K, x1 = 0.3092 | 825.43 | 1193.9 | –
313.15 K, x1 = 0.4012 | 834.71 | 1203.5 | –
313.15 K, x1 = 0.5011 | 844.14 | 1213.3 | –
313.15 K, x1 = 0.6065 | 853.46 | 1223.1 | –
313.15 K, x1 = 0.7054 | 861.68 | 1231.8 | –
313.15 K, x1 = 0.806 | 869.59 | 1240.2 | –
313.15 K, x1 = 0.8558 | 873.33 | 1244.1 | –
313.15 K, x1 = 0.8999 | 876.56 | 1247.6 | –
313.15 K, x1 = 0.9516 | 880.24 | 1251.6 | –
